Data reported in ChEMBL document CHEMBL3885861, “Open TG-GATES”.

Species on record: Rattus norvegicus
Experiment: Open TG-GATES - Regimen: Daily Repeat
Type: toxicity, organism-based, Sprague-Dawley
Parameters: regimen Daily Repeat, gender Male, age 6 weeks
Settings: in vivo, po, route gavage; for APTT / Bas / Eos / Fbg / Hb / Ht / Lym / MCH / MCHC / MCV / Mono / Neu / PT / Plat / RBC / Ret / WBC: tissue Blood; for KIDNEY_L / KIDNEY_R / KIDNEY_TOTAL: tissue Kidney; for LIVER: tissue Liver; for A/G / ALP / ALT / AST / BUN / CRE / Ca / Cl / DBIL / GLC / IP / K / LDH / Na / PL / RALB / TBIL / TC / TG / TP / gamma-GTP: tissue Plasma
[1] = 0 mg/kg, 72 h, dose level Control, time 3 day
[2] = 0 mg/kg, […], dose level Control, time 7 day
[3] = 0 mg/kg, […], dose level Control, time 14 day
[4] = 0 mg/kg, […], dose level Control, time 28 day
[5] = 10 mg/kg, 72 h, dose level Low, time 3 day
[6] = 10 mg/kg, […], dose level Low, time 7 day
[7] = 10 mg/kg, […], dose level Low, time 14 day
[8] = 10 mg/kg, […], dose level Low, time 28 day

## CN(C)CCN(Cc1cccs1)c1ccccn1
[1]
  TERMINAL_BW: 217.2 g
  APTT: 22.4 s
  Bas: 0%
  Eos: 0.6%
  Fbg: 290.8 mg/dL
  Hb: 12.9 g/dL
  Ht: 38.8%
  Lym: 80.4%
  MCH: 21.3 pg
  MCHC: 33.4%
  MCV: 63.8 fL
  Mono: 1.8%
  Neu: 16.4%
  PT: 15.9 s
  Plat: 125.8 x10_4/uL
  RBC: 609 x10_4/ul
  Ret: 6.8%
  WBC: 107.9 x10_2/uL
  KIDNEY_L: 1 g
  KIDNEY_R: 1 g
  KIDNEY_TOTAL: 2 g
  LIVER: 10.2 g
  A/G: 1.2
  ALP: 1533 IU/L
  ALT: 39.2 IU/L
  AST: 68 IU/L
  BUN: 16.8 mg/dL
  CRE: 0.2 mg/dL
  Ca: 10.9 mg/dL
  Cl: 106.4 meq/L
  DBIL: 0.002 mg/dL
  GLC: 187.2 mg/dL
  IP: 7.1 mg/dL
  K: 4.4 meq/L
  LDH: 210.8 IU/L
  Na: 142.6 meq/L
  PL: 140.6 mg/dL
  RALB: 3 g/dL
  TBIL: 0.012 mg/dL
  TC: 75.4 mg/dL
  TG: 86.8 mg/dL
  TP: 5.6 g/dL
  gamma-GTP: 1 IU/L
[2]
  TERMINAL_BW: 246.2 g
  APTT: 21.1 s
  Bas: 0%
  Eos: 0.6%
  Fbg: 320.8 mg/dL
  Hb: 13.4 g/dL
  Ht: 39.8%
  Lym: 80.2%
  MCH: 20.8 pg
  MCHC: 33.6%
  MCV: 61.8 fL
  Mono: 2%
  Neu: 16.4%
  PT: 17 s
  Plat: 131 x10_4/uL
  RBC: 644.2 x10_4/ul
  Ret: 5.8%
  WBC: 122.7 x10_2/uL
  KIDNEY_L: 1 g
  KIDNEY_R: 1 g
  KIDNEY_TOTAL: 2.1 g
  LIVER: 10.9 g
  A/G: 1.2
  ALP: 1666.2 IU/L
  ALT: 40 IU/L
  AST: 68 IU/L
  BUN: 17.8 mg/dL
  CRE: 0.2 mg/dL
  Ca: 10.6 mg/dL
  Cl: 107.4 meq/L
  DBIL: 0 mg/dL
  GLC: 182.4 mg/dL
  IP: 7.3 mg/dL
  K: 4.4 meq/L
  LDH: 164.4 IU/L
  Na: 144.4 meq/L
  PL: 146.6 mg/dL
  RALB: 3 g/dL
  TBIL: 0.01 mg/dL
  TC: 72.6 mg/dL
  TG: 125.8 mg/dL
  TP: 5.6 g/dL
  gamma-GTP: 1.8 IU/L
[3]
  TERMINAL_BW: 277 g
  APTT: 21.6 s
  Bas: 0%
  Eos: 1%
  Fbg: 303.8 mg/dL
  Hb: 14 g/dL
  Ht: 40.9%
  Lym: 81.8%
  MCH: 20.3 pg
  MCHC: 34.2%
  MCV: 59.4 fL
  Mono: 2%
  Neu: 14.4%
  PT: 16.7 s
  Plat: 112.6 x10_4/uL
  RBC: 689.8 x10_4/ul
  Ret: 4.2%
  WBC: 133.3 x10_2/uL
  KIDNEY_L: 1.1 g
  KIDNEY_R: 1.1 g
  KIDNEY_TOTAL: 2.3 g
  LIVER: 11.5 g
  A/G: 1.1
  ALP: 1834 IU/L
  ALT: 39.6 IU/L
  AST: 68 IU/L
  BUN: 19 mg/dL
  CRE: 0.2 mg/dL
  Ca: 10.1 mg/dL
  Cl: 107.4 meq/L
  DBIL: 0.002 mg/dL
  GLC: 194.8 mg/dL
  IP: 6.7 mg/dL
  K: 4.1 meq/L
  LDH: 160.2 IU/L
  Na: 142.4 meq/L
  PL: 138 mg/dL
  RALB: 3 g/dL
  TBIL: 0.008 mg/dL
  TC: 63.8 mg/dL
  TG: 128 mg/dL
  TP: 5.5 g/dL
  gamma-GTP: 1.2 IU/L
[4]
  TERMINAL_BW: 347.3 g
  APTT: 23.4 s
  Bas: 0%
  Eos: 1%
  Fbg: 288.2 mg/dL
  Hb: 14.7 g/dL
  Ht: 42.7%
  Lym: 79%
  MCH: 19.5 pg
  MCHC: 34.3%
  MCV: 56.9 fL
  Mono: 1.6%
  Neu: 17.4%
  PT: 16.1 s
  Plat: 97.6 x10_4/uL
  RBC: 751.4 x10_4/ul
  Ret: 2.9%
  WBC: 92 x10_2/uL
  KIDNEY_L: 1.3 g
  KIDNEY_R: 1.3 g
  KIDNEY_TOTAL: 2.5 g
  LIVER: 13.4 g
  A/G: 1.2
  ALP: 1175.4 IU/L
  ALT: 42.6 IU/L
  AST: 66.4 IU/L
  BUN: 18.6 mg/dL
  CRE: 0.2 mg/dL
  Ca: 10.2 mg/dL
  Cl: 107.8 meq/L
  DBIL: 0.004 mg/dL
  GLC: 183.6 mg/dL
  IP: 6 mg/dL
  K: 4.1 meq/L
  LDH: 156 IU/L
  Na: 143.2 meq/L
  PL: 131.8 mg/dL
  RALB: 3.1 g/dL
  TBIL: 0.012 mg/dL
  TC: 67 mg/dL
  TG: 103 mg/dL
  TP: 5.7 g/dL
  gamma-GTP: 1.8 IU/L
[5]
  TERMINAL_BW: 219.5 g
  APTT: 21.1 s
  Bas: 0%
  Eos: 0.8%
  Fbg: 343 mg/dL
  Hb: 13 g/dL
  Ht: 39.1%
  Lym: 79%
  MCH: 21.6 pg
  MCHC: 33.2%
  MCV: 65 fL
  Mono: 1.6%
  Neu: 18%
  PT: 16 s
  Plat: 116.7 x10_4/uL
  RBC: 603.4 x10_4/ul
  Ret: 7%
  WBC: 85.5 x10_2/uL
  KIDNEY_L: 1 g
  KIDNEY_R: 1 g
  KIDNEY_TOTAL: 2 g
  LIVER: 10.9 g
  A/G: 1.1
  ALP: 1503.8 IU/L
  ALT: 43.2 IU/L
  AST: 72.2 IU/L
  BUN: 16.8 mg/dL
  CRE: 0.2 mg/dL
  Ca: 10.9 mg/dL
  Cl: 107 meq/L
  DBIL: 0 mg/dL
  GLC: 188.2 mg/dL
  IP: 7.8 mg/dL
  K: 4.2 meq/L
  LDH: 181 IU/L
  Na: 143.6 meq/L
  PL: 149.8 mg/dL
  RALB: 2.9 g/dL
  TBIL: 0.006 mg/dL
  TC: 80.6 mg/dL
  TG: 108.2 mg/dL
  TP: 5.6 g/dL
  gamma-GTP: 1.2 IU/L
[6]
  TERMINAL_BW: 229.9 g
  APTT: 22.1 s
  Bas: 0%
  Eos: 1%
  Fbg: 323.4 mg/dL
  Hb: 13.7 g/dL
  Ht: 40.5%
  Lym: 82.8%
  MCH: 20.8 pg
  MCHC: 33.8%
  MCV: 61.6 fL
  Mono: 2%
  Neu: 13.2%
  PT: 16.4 s
  Plat: 120.4 x10_4/uL
  RBC: 658 x10_4/ul
  Ret: 4.8%
  WBC: 113.4 x10_2/uL
  KIDNEY_L: 1 g
  KIDNEY_R: 1 g
  KIDNEY_TOTAL: 2 g
  LIVER: 10.6 g
  A/G: 1.1
  ALP: 1638.2 IU/L
  ALT: 35.6 IU/L
  AST: 66.6 IU/L
  BUN: 18.6 mg/dL
  CRE: 0.2 mg/dL
  Ca: 10.4 mg/dL
  Cl: 108.8 meq/L
  DBIL: 0 mg/dL
  GLC: 174.6 mg/dL
  IP: 6.8 mg/dL
  K: 4.7 meq/L
  LDH: 183.8 IU/L
  Na: 144.2 meq/L
  PL: 129.6 mg/dL
  RALB: 3 g/dL
  TBIL: 0.008 mg/dL
  TC: 63.2 mg/dL
  TG: 109.2 mg/dL
  TP: 5.7 g/dL
  gamma-GTP: 1 IU/L
[7]
  TERMINAL_BW: 284.8 g
  APTT: 21.3 s
  Bas: 0%
  Eos: 0.6%
  Fbg: 297.6 mg/dL
  Hb: 14.3 g/dL
  Ht: 42.1%
  Lym: 83.6%
  MCH: 20.8 pg
  MCHC: 34%
  MCV: 61.1 fL
  Mono: 1.6%
  Neu: 13.2%
  PT: 16.2 s
  Plat: 116 x10_4/uL
  RBC: 689.4 x10_4/ul
  Ret: 4.6%
  WBC: 120.5 x10_2/uL
  KIDNEY_L: 1.1 g
  KIDNEY_R: 1.2 g
  KIDNEY_TOTAL: 2.3 g
  LIVER: 12.3 g
  A/G: 1.1
  ALP: 1409 IU/L
  ALT: 39.4 IU/L
  AST: 68.6 IU/L
  BUN: 17.6 mg/dL
  CRE: 0.2 mg/dL
  Ca: 10.2 mg/dL
  Cl: 108.2 meq/L
  DBIL: 0.002 mg/dL
  GLC: 175.4 mg/dL
  IP: 6.7 mg/dL
  K: 4.2 meq/L
  LDH: 177.2 IU/L
  Na: 143.2 meq/L
  PL: 137.2 mg/dL
  RALB: 2.9 g/dL
  TBIL: 0.012 mg/dL
  TC: 71.8 mg/dL
  TG: 88.8 mg/dL
  TP: 5.6 g/dL
  gamma-GTP: 1 IU/L
[8]
  TERMINAL_BW: 353.5 g
  APTT: 22.8 s
  Bas: 0%
  Eos: 1.2%
  Fbg: 307.8 mg/dL
  Hb: 15.3 g/dL
  Ht: 44.4%
  Lym: 78.8%
  MCH: 20.2 pg
  MCHC: 34.5%
  MCV: 58.6 fL
  Mono: 2.2%
  Neu: 17.2%
  PT: 15.8 s
  Plat: 96.3 x10_4/uL
  RBC: 758 x10_4/ul
  Ret: 2.6%
  WBC: 105 x10_2/uL
  KIDNEY_L: 1.2 g
  KIDNEY_R: 1.3 g
  KIDNEY_TOTAL: 2.5 g
  LIVER: 14.3 g
  A/G: 1.2
  ALP: 1369.6 IU/L
  ALT: 45.8 IU/L
  AST: 73.4 IU/L
  BUN: 20.4 mg/dL
  CRE: 0.2 mg/dL
  Ca: 10.3 mg/dL
  Cl: 107.6 meq/L
  DBIL: 0.004 mg/dL
  GLC: 189 mg/dL
  IP: 6.5 mg/dL
  K: 3.9 meq/L
  LDH: 183.6 IU/L
  Na: 143.2 meq/L
  PL: 142.6 mg/dL
  RALB: 3.2 g/dL
  TBIL: 0.026 mg/dL
  TC: 72.4 mg/dL
  TG: 111 mg/dL
  TP: 5.7 g/dL
  gamma-GTP: 1.4 IU/L
